Assay results: patent US8912359B2, “Bisbenzamidines for the treatment of pneumonia” (University of Cincinnati, priority 2003, dated 2014)
≈ marks a conversion by molar mass, not a printed value. Read-outs that look alike come from different tables or passages of the source.

What was measured:
Calf thymus DNA = test: DNA Binding ΔTm, calf thymus
Pneumocystis = Pneumocystis ATP detection assay; type: cell-based, P. carinii; settings: for IC50: concentration reducing ATP content of Pneumocystis populations by 50% vs untreated controls, 48 hours exposure (Table 1 title); for Anti-Pneumocystis Activity: semi-qualitative scale from highly active to no activity, based on IC50
Text: An ATP assay system (Cushion, Chen et al., 1997; Chen & Cushion, 1994; Collins & Cushion, 2001) was used to evaluate bisbenzamidine analogues as potential therapeutic targets for treatment of pneumonia, particularly that caused by species in the genus Pneumocystis. […]. Development of these compounds could provide new and novel treatment choices for Pneumocystis pneumonia.
A series of novel bisbenzamidines linked by either a rigid (for instance, a phenylene diamide) or a flexible (for instance, a propyl diamide) core are described. Such compounds may be used for the treatment of infections, such as pneumonia and for instance, pneumonia caused by Pneumocystis.
The structure-activity relationships for the piperazine-linked bisbenzamidines and the toxicities of each compound in three different mammalian cell lines are shown in the following tables. Compounds are ranked in order of the lowest concentration necessary to reduce the ATP content of Pneumocystis populations by 50% (i.e., the IC50) compared to untreated control populations. Note that the IC50 values are expressed on a microgram per milliliter and micromolar basis. […];

Poly (dA-dT) = test: DNA Binding ΔTm, Poly (dA-dT)
WI-38 = test: toxicity to WI-38 cell line (ATP system)
Text: (§1) Two transformed cell lines derived from two different organ systems and a primary cell line were chosen for evaluation of the relative toxicity of each compound. […] The Hep-G2 cell line is an epithelial cell line derived from a human hepatocellular carcinoma, and WI-38 is a human diploid cell line derived from normal embryonic (3 months of gestation) lung tissue.

[1] = system: A549 lung epithelial cells
Text: as §1

Structure (SMILES) | DNA Binding ΔTm Calf thymus (Calf thymus DNA) | IC50 (Pneumocystis) | Anti-Pneumocystis Activity (Pneumocystis) | DNA Binding ΔTm Poly (dA-dT) (Poly (dA-dT)) | toxicity in WI-38 line (WI-38) | toxicity in A549 line [1] | toxicity in A549 line ([1]; human) | Anti-Pneumocystis Activity (Pneumocystis; listed as —C2H5)
N=C(N)c1ccc(OCCCCCOc2ccc(C(=N)N)cc2)cc1 [Pentamidine, reference compound] | 11.1 °C | 0.3 µg/mL (≈ 0.881 µM) | marked | 20.6 °C | – | – | – | –
CCCCCNC(=N)c1ccc(N2CCN(c3ccc(C(=N)NCCCCC)cc3)CC2)cc1 [compound 2, 4,4′-(1,4-piperazinediyl)bis(N-pentylbenzenecarboximidamide)] | 16.9 °C | – | Highly Active | 22.5 °C | – | – | – | –
CCCCCCNC(=N)c1ccc(N2CCN(c3ccc(C(=N)NCCCCCC)cc3)CC2)cc1 [compound 3, 4,4′-(1,4-piperazinediyl)bis(N-hexylbenzenecarboximidamide)] | 10.7 °C | – | Highly Active | 10.1 °C | – | – | – | –
CCCCCCCNC(=N)c1ccc(N2CCN(c3ccc(C(=N)NCCCCCCC)cc3)CC2)cc1 [compound 5, 4,4′-(1,4-piperazinediyl)bis(N-heptylbenzenecarboximidamide)] | 8.7 °C | – | Very Marked | 8.5 °C | without toxicity | without toxicity | – | –
CCCCCCCCNC(=N)c1ccc(N2CCN(c3ccc(C(=N)NCCCCCCCC)cc3)CC2)cc1 [compound 11, 4,4′-(1,4-piperazinediyl)bis(N-octylbenzenecarboximidamide)] | 4.2 °C | – | Marked | – | – | – | – | –
CCCCCCCCCNC(=N)c1ccc(N2CCN(c3ccc(C(=N)NCCCCCCCCC)cc3)CC2)cc1 [compound 14, 4,4′-(1,4-piperazinediyl)bis(N-nonylbenzenecarboximidamide)] | 1.3 °C | – | Marked | 2.7 °C | – | – | – | –
CCCCCCCCCCCCNC(=N)c1ccc(N2CCN(c3ccc(C(=N)NCCCCCCCCCCCC)cc3)CC2)cc1 [compound 15, 4,4′-(1,4-piperazinediyl)bis(N-dodecylbenzenecarboximidamide)] | 0.6 °C | – | Marked | 0.0 °C | – | – | not the A549 line | –
CCNC(=N)c1ccc(N2CCN(c3ccc(C(=N)NCC)cc3)CC2)cc1 [compound 16, 4,4′-(1,4-piperazinediyl)bis(N-ethylbenzenecarboximidamide)] | 15.3 °C | 0.542 µg/mL (≈ 1.43 µM) | marked | 18.6 °C | – | – | – | Marked
CCCCCCCCCCNC(=N)c1ccc(N2CCN(c3ccc(C(=N)NCCCCCCCCCC)cc3)CC2)cc1 [compound 18, 4,4′-(1,4-piperazinediyl)bis(N-decylbenzenecarboximidamide)] | 1.3 °C | – | Marked | – | – | – | – | –
